Results published in US9290457B2, “Substituted dihydropyrimidinones and their use as inhibitors of neutrophil elastase activity” (Boehringer Ingelheim International GmbH, priority 2014, dated 2016).

Legend:
[1] = biological target: hERG (human ether-a-go-go-related gene) potassium channel (Homo sapiens (Human), UniProt Q12809); test: hERG inhibition patch clamp assay; type: cell-based
Description: (§1) Calculations: Fold induction=(Enzyme mRNA Compound)/(Enzyme mRNA Solvent Control) Inducer Potency=(Fold Compound)/(Fold Rifampicin)*100 Assay for Determination of hERG Inhibition
(§2) The inhibition of the hERG (human ether-a-go-go-related gene) potassium channel can be determined as described in Rast, G., & Guth, B. D., Journal of Pharmacological and Toxicological Methods (2014), http://dx.doi.org/10.1016/j.vasen.2014.08.001.

cytochrome P450 2C19 = cytochrome P450 2C19 (Homo sapiens (Human), UniProt P33261); test: Cytochrome P450 2C19 inhibition; type: in vitro ADME; conditions: human liver microsomes, Mephenytoin hydroxylation; read-out: IC50 CYP2C19 inhibition
Method: Assay for Determination of Cytochrome P450 2C19 Inhibition
(§3) All assays are carried out on a robotic system in 96 well plates. The final incubation volume contains TRIS buffer (0.1 M), MgCl2 (5 mM), human liver microsomes (0.5 mg/ml), (S)-Mephenytoin (70 μM) and the test compound at five different concentrations or no compound (high control) in duplicate (e.g. highest concentration 10-50 μM with subsequent serial 1:4 dilutions). Following a short preincubation period, reactions are started with the cofactor (NADPH, 1 mM) and stopped by cooling the incubation down to 8° C. and subsequently by addition of one volume of acetonitrile. An internal standard solution—usually the stable isotope of the formed metabolite—is added after quenching of incubations. Peak area analyte (=metabolite formed) and internal standard is determined by LC-MS/MS. The resulting peak area ratio analyte to internal standard in these incubations is compared to a control activity containing no test compound.
(§4) If the inhibition of the reaction is already >50% at the lowest concentration of the test compound, the IC50 is assigned “<lowest concentration tested” (usually <0.4 μM). If the inhibition of the reaction is still <50% at the highest concentration of the test compound, the IC50 is assigned “>highest concentration tested” (usually >50 μM).

cytochrome P450 2C9 = cytochrome P450 2C9 (Homo sapiens (Human), UniProt P11712); test: Cytochrome P450 2C9 inhibition; type: in vitro ADME; conditions: human liver microsomes, Diclofenac hydroxylation; read-out: IC50 CYP2C9 inhibition
Method: Assay for Determination of Cytochrome P450 2C9 Inhibition
as §3, with “(0.1” for “(0.5”, “Diclofenac (10” for “(S)-Mephenytoin (70”
as §4

hERG potassium channel = hERG potassium channel (Homo sapiens (Human), UniProt Q12809); test: hERG inhibition patch clamp assay; type: cell-based; conditions: human, @ 10 μM
Description: as §1, §2

hERG (human ether-a-go-go-related gene) potassium channel, sequence (Q12809 whole entry): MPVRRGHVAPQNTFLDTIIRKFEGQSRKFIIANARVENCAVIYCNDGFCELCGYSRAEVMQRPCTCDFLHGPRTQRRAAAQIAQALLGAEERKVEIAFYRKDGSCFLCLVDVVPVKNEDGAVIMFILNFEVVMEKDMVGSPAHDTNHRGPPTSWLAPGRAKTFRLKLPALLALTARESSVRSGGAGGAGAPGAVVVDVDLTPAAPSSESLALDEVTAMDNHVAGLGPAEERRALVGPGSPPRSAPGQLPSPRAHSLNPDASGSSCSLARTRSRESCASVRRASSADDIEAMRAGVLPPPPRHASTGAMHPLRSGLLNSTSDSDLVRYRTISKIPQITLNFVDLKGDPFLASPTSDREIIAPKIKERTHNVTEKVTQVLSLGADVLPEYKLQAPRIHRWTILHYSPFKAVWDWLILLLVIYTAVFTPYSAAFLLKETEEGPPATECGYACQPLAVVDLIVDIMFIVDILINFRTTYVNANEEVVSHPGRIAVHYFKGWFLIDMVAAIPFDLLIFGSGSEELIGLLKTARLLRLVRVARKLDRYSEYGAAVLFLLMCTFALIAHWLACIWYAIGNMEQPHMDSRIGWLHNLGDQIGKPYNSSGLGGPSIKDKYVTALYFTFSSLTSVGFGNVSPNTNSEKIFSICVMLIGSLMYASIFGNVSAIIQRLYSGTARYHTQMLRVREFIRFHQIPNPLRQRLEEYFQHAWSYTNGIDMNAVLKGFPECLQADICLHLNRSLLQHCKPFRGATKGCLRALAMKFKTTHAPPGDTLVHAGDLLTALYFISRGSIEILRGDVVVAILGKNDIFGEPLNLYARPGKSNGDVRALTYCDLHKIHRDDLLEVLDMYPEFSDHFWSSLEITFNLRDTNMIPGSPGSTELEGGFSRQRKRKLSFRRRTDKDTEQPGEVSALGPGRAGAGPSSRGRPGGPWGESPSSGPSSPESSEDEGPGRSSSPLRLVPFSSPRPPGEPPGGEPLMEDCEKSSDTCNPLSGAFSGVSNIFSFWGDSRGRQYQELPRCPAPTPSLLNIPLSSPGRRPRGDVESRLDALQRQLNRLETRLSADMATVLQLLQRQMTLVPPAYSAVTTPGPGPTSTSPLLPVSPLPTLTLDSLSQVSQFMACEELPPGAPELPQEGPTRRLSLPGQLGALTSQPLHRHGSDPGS
cytochrome P450 2C19, sequence (P33261 whole entry): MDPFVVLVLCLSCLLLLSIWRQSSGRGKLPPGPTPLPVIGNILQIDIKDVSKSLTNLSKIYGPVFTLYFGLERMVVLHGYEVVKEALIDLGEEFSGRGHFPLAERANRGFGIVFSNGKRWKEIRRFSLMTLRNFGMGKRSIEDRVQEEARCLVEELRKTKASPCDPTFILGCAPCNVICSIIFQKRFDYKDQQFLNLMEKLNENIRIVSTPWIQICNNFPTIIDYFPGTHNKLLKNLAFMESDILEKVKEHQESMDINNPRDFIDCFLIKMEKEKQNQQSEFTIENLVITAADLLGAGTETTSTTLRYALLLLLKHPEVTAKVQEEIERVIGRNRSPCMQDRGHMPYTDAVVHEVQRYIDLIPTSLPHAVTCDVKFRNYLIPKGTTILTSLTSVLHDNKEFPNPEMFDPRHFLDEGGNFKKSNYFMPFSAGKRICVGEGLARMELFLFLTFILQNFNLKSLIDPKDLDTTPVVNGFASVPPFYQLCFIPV
cytochrome P450 2C9, sequence (P11712 whole entry): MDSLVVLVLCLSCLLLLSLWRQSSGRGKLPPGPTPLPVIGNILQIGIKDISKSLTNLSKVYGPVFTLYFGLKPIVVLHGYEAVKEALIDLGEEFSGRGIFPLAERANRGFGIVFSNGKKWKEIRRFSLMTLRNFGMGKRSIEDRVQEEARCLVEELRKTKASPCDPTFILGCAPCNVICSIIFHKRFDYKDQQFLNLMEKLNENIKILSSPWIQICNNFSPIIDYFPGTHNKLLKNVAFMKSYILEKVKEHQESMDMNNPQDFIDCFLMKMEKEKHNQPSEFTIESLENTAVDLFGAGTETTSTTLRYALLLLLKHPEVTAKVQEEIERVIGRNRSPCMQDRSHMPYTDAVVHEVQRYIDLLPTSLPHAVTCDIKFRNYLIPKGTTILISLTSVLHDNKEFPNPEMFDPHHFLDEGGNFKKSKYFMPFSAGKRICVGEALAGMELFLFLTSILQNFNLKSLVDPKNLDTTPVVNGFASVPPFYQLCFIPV
hERG potassium channel, sequence (Q12809 whole entry): as the sequence (Q12809 whole entry) above

IC50 (cytochrome P450 2C19) [µM]	IC50 (cytochrome P450 2C9) [µM]	SMILES	IC50 [1] [µM]	hERG inhibition ([1]; @ 10 μM)	inhibition at 10 µM (hERG potassium channel) [%]
> 50	> 50	CNC(=O)c1cc(C#N)ccc1[C@@H]1C(C(C)=O)=C(C)N(c2cccc(C(F)(F)F)c2)C(=O)N1C [Example 13.1]	> 30	(7% @ 10 μM)	
> 50	> 50	CC(=O)C1=C(C)N(c2cccc(C(F)(F)F)c2)C(=O)N(C)[C@@H]1c1ccc(C#N)cc1-c1ccc(=O)n(C)c1 [Example 16, 4-[(R)-5-Acetyl-3,6-dimethyl-2-oxo-1-(3-trifluoromethyl-phenyl)-1,2,3,4-tetrahydro-pyrimidin-4-yl]-3-(1-methyl-6-oxo-1,6-dihydro-pyridin-3-yl)-benzonitrile]	> 30		8
